{"source": "patent US20130116302A1", "about": "“PHARMACEUTICAL COMPOSITION FOR THE TREATMENT OF CHLAMYDIAL INFECTION” (Max-Planck-Gesellschaft zur Foerderung der Wissenschaften …, priority 2010, published 2013)"}
{"system": "C. trachomatis L2", "assay": "genome-wide siRNA-based screen in human epithelial cells, formation of Chlamydia infectious progeny", "type": "cell-based", "conditions": "Table 1b, primary screen, genes of nucleotide metabolism", "from_the_text": "We performed a genome-wide siRNA-based screen in human epithelial cells to identify host cell factors that are essential for Chlamydia infection using the Qiagen Hu_Genome Set V1.0 and the Human Druggable Genome siRNA Set V2.0. C. trachomatis L2 was used."}
{"substance": "AACATTGTACCCTATACTATA: siRNA, target gene PAPSS2; no product name printed (chemistry not given here; the letters are possibly those of the target site)", "Infectivity phenotype upon Knockdown": "down"}
{"substance": "Hs_ADCY8_5: siRNA, target gene ADCY8 (sense CACCGGCATTGAGGTAGTGAT; chemistry not given here; the letters are possibly those of the target site)", "Infectivity phenotype upon Knockdown": "down"}
{"substance": "Hs_ADCY8_8: siRNA, target gene ADCY8 (sense CAGGCCGCCTTTGAGTCTTTA; chemistry not given here; the letters are possibly those of the target site)", "Infectivity phenotype upon Knockdown": "down"}
{"substance": "Hs_ADCY9_3: siRNA, target gene ADCY9 (sense CTGGGCATGAGGAGGTTTAAA; chemistry not given here; the letters are possibly those of the target site)", "Infectivity phenotype upon Knockdown": "down"}
{"substance": "Hs_AMPD3_1: siRNA, target gene AMPD3 (sense CGGGATCACTTTGGAGGACTA; chemistry not given here; the letters are possibly those of the target site)", "Infectivity phenotype upon Knockdown": "down"}
{"substance": "Hs_AMPD3_9: siRNA, target gene AMPD3 (sense CAACAGTTTGTTCCTCGAATA; chemistry not given here; the letters are possibly those of the target site)", "Infectivity phenotype upon Knockdown": "down"}
{"substance": "Hs_ENPP1_2: siRNA, target gene ENPP1 (sense TGGGCAAACAGTAGACTTATA; chemistry not given here; the letters are possibly those of the target site)", "Infectivity phenotype upon Knockdown": "down"}
{"substance": "Hs_ENPP3_1: siRNA, target gene ENPP3 (sense CTGGCTGTTAGGAGTAAATCA; chemistry not given here; the letters are possibly those of the target site)", "Infectivity phenotype upon Knockdown": "down"}
{"substance": "Hs_ENPP3_2: siRNA, target gene ENPP3 (sense TAGCAATTTGGTACCTATGTA; chemistry not given here; the letters are possibly those of the target site)", "Infectivity phenotype upon Knockdown": "down"}
{"substance": "Hs_ENPP5_1: siRNA, target gene ENPP5 (sense AAGCATTTAATTCACAGTCAA; chemistry not given here; the letters are possibly those of the target site)", "Infectivity phenotype upon Knockdown": "down"}
{"substance": "Hs_ENPP6_1: siRNA, target gene ENPP6 (sense TTGGATAATTCTATACATAAA; chemistry not given here; the letters are possibly those of the target site)", "Infectivity phenotype upon Knockdown": "down"}
{"substance": "Hs_ENPP6_2: siRNA, target gene ENPP6 (sense CAGGGTGATGTGCATGCTGAA; chemistry not given here; the letters are possibly those of the target site)", "Infectivity phenotype upon Knockdown": "down"}
{"substance": "Hs_ENTPD4_1: siRNA, target gene ENTPD4 (sense CAGCAGGAAGAAGTAGCTAAA; chemistry not given here; the letters are possibly those of the target site)", "Infectivity phenotype upon Knockdown": "down"}
{"substance": "Hs_ENTPD4_2: siRNA, target gene ENTPD4 (sense CAGCAGAAAGCTATTCTGGAA; chemistry not given here; the letters are possibly those of the target site)", "Infectivity phenotype upon Knockdown": "down"}
{"substance": "Hs_GMPR2_11: siRNA, target gene GMPR2 (sense TCCCAAGGCACCAGTACTCTA; chemistry not given here; the letters are possibly those of the target site)", "Infectivity phenotype upon Knockdown": "down"}
{"substance": "Hs_GMPR2_12: siRNA, target gene GMPR2 (sense TTGGACCTTCACATATCTAAA; chemistry not given here; the letters are possibly those of the target site)", "Infectivity phenotype upon Knockdown": "down"}
{"substance": "Hs_GMPS_1: siRNA, target gene GMPS (sense AACAGAGAACTTGAGTGTATT; chemistry not given here; the letters are possibly those of the target site)", "Infectivity phenotype upon Knockdown": "down"}
{"substance": "Hs_GMPS_2: siRNA, target gene GMPS (sense AAGAATTTCCTTTATGATATA; chemistry not given here; the letters are possibly those of the target site)", "Infectivity phenotype upon Knockdown": "down"}
{"substance": "Hs_GUK1_6: siRNA, target gene GUK1 (sense CCCGGCGAGGAGAACGGCAAA; chemistry not given here)", "Infectivity phenotype upon Knockdown": "down"}
{"substance": "Hs_HPRT1_6: siRNA, target gene HPRT1 (sense CCCACGAAGTGTTGGATATAA; chemistry not given here; the letters are possibly those of the target site)", "Infectivity phenotype upon Knockdown": "down"}
{"substance": "Hs_HPRT1_9: siRNA, target gene HPRT1 (sense CCACAGCACTATTGAGTGAAA; chemistry not given here; the letters are possibly those of the target site)", "Infectivity phenotype upon Knockdown": "down"}
{"substance": "Hs_IMPDH1_6: siRNA, target gene IMPDH1 (sense CAGCAGCAGCCAGAAACGATA; chemistry not given here; the letters are possibly those of the target site)", "Infectivity phenotype upon Knockdown": "down"}
{"substance": "Hs_IMPDH1_7: siRNA, target gene IMPDH1 (sense CAGGCGGGCGTCGACGTCATA; chemistry not given here; the letters are possibly those of the target site)", "Infectivity phenotype upon Knockdown": "down"}
{"substance": "Hs_IMPDH2_6: siRNA, target gene IMPDH2 (sense TGGGATCCGGCTAAAGAAATA; chemistry not given here; the letters are possibly those of the target site)", "Infectivity phenotype upon Knockdown": "down"}
{"substance": "Hs_IMPDH2_8: siRNA, target gene IMPDH2 (sense AATGTGGGTCATATTGCGAAA; chemistry not given here; the letters are possibly those of the target site)", "Infectivity phenotype upon Knockdown": "down"}
{"substance": "Hs_ITPA_2: siRNA, target gene ITPA (sense CTGGAGAAGTTAAAGCCTGAA; chemistry not given here; the letters are possibly those of the target site)", "Infectivity phenotype upon Knockdown": "down"}
{"substance": "Hs_ITPA_3: siRNA, target gene ITPA (sense GAGGAGGTCGTTCAGATTCTA; chemistry not given here; the letters are possibly those of the target site)", "Infectivity phenotype upon Knockdown": "down"}
{"substance": "Hs_NME1_5: siRNA, target gene NME1 (sense TTCCGCCTTGTTGGTCTGAAA; chemistry not given here; the letters are possibly those of the target site)", "Infectivity phenotype upon Knockdown": "down"}
{"substance": "Hs_NME1_8: siRNA, target gene NME1 (sense TCCGAAGATCTTCTCAAGGAA; chemistry not given here; the letters are possibly those of the target site)", "Infectivity phenotype upon Knockdown": "down"}
{"substance": "Hs_NME2P1_2: siRNA, target gene NME2P1 (sense CAGGTTGGCAGGAACATCATT; chemistry not given here; the letters are possibly those of the target site)", "Infectivity phenotype upon Knockdown": "down"}
{"substance": "Hs_NME2P1_4: siRNA, target gene NME2P1 (sense CCTGGTGGGCAAGATCATCAA; chemistry not given here; the letters are possibly those of the target site)", "Infectivity phenotype upon Knockdown": "down"}
{"substance": "Hs_NME2_3: siRNA, target gene NME2 (sense TAGAGCATATTTGCCAATAAA; chemistry not given here; the letters are possibly those of the target site)", "Infectivity phenotype upon Knockdown": "down"}
{"substance": "Hs_NME2_6: siRNA, target gene NME2 (sense TGGGCTGGTGAAGTACATGAA; chemistry not given here; the letters are possibly those of the target site)", "Infectivity phenotype upon Knockdown": "down"}
{"substance": "Hs_NME2_22: siRNA, target gene NME2 (sense CAGCACTACATTGACCTGAAA; chemistry not given here; the letters are possibly those of the target site)", "Infectivity phenotype upon Knockdown": "down"}
{"substance": "Hs_NME3_3: siRNA, target gene NME3 (sense CTGCATCGAGGTTGGCAAGAA; chemistry not given here; the letters are possibly those of the target site)", "Infectivity phenotype upon Knockdown": "down"}
{"substance": "Hs_NME3_5: siRNA, target gene NME3 (sense ACGGCCGCCTTGTCAAGTATA; chemistry not given here; the letters are possibly those of the target site)", "Infectivity phenotype upon Knockdown": "down"}
{"substance": "Hs_NPR2_2: siRNA, target gene NPR2 (sense ACCCAACTGAATGAAGAGCTA; chemistry not given here; the letters are possibly those of the target site)", "Infectivity phenotype upon Knockdown": "down"}
{"substance": "Hs_NPR2_8: siRNA, target gene NPR2 (sense CAGCTCAGCCCTGTACATATA; chemistry not given here; the letters are possibly those of the target site)", "Infectivity phenotype upon Knockdown": "down"}
{"substance": "Hs_PAPSS2_1: siRNA, target gene PAPSS2 (sense ATGGAAGGTCCTGACAGATTA; chemistry not given here; the letters are possibly those of the target site)", "Infectivity phenotype upon Knockdown": "down"}
